{"source": "BindingDB's records for doi:10.1016/j.bioorg.2017.04.001", "about": "(China Pharmaceutical University, 2017)", "key": {"[1]": {"molecular_target": "Hepatocyte growth factor receptor (Homo sapiens, UniProt P08581)", "sequence (P08581 whole entry)": "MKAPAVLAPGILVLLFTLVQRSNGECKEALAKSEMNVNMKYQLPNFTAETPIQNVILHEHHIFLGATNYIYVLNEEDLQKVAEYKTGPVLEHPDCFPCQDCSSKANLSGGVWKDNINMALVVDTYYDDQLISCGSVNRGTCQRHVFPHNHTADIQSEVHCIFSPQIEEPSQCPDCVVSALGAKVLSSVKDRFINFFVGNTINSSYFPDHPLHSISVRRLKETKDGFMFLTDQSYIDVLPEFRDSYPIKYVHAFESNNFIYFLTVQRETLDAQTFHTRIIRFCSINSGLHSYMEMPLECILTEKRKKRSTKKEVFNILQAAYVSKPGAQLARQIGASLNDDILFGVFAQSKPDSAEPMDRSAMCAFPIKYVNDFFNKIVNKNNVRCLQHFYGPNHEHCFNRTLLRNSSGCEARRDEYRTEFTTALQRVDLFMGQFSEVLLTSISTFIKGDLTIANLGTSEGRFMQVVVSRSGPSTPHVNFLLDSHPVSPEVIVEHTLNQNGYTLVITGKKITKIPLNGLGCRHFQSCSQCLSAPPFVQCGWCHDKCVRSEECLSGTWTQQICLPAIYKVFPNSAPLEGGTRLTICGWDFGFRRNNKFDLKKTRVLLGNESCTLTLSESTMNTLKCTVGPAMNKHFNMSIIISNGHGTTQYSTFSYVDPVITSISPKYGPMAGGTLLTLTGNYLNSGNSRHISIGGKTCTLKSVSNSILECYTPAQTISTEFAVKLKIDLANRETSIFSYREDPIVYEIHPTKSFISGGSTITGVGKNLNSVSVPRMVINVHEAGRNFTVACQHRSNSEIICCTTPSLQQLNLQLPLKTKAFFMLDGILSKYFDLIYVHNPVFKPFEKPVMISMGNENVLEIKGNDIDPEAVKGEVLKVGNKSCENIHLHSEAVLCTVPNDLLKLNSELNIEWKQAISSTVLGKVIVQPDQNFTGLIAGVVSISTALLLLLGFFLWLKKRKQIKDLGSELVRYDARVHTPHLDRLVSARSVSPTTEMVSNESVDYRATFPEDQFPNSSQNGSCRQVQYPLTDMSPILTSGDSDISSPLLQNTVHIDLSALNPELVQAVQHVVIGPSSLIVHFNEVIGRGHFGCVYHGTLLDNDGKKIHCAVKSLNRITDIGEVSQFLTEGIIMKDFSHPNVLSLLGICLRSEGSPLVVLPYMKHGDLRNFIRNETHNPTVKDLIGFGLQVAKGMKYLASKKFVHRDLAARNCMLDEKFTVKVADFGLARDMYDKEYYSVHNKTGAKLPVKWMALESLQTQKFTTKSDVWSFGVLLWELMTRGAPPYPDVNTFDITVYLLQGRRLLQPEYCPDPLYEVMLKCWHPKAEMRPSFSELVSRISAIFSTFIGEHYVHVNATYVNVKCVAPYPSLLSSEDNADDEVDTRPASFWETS", "test": "In Vitro c-Met and VEGFR-2 Enzyme Assay", "conditions": "pH 7.4; 37 °C", "experimental": "(§1) Briefly, 20 μg/mL poly (Glu,Tyr) 4:1 (Sigma) was pre-coated in 96-well plates as a substrate. A 50 μL aliquot of 10 μmol/L ATP solution diluted in kinase reaction buffer (50 mmol/L HEPES [pH 7.4], 50 mmol/L MgCl2, 0.5 mmol/L MnCl2, 0.2 mmol/L Na3VO4, and 1 mmol/L DTT) was added to each well; 1 μL of various concentrations of indicated compounds diluted in 1% DMSO (v/v) (Sigma) was then added to each reaction well. DMSO (1%, v/v) was used as the negative control. The kinase reaction was initiated by the addition of purified tyrosine kinase proteins diluted in 49 μL of kinase reaction buffer. After incubation for 60 min at 37 °C, the plate was washed three times with phosphate-buffered saline (PBS) containing 0.1% Tween 20 (T-PBS). Anti-phosphotyrosine (PY99) antibody was then added. After a 30-min incubation at 37 °C, the plate was washed three times, and horseradishperoxidase-conjugated goat anti-mouse IgG was added. The plate was then incubated at 37 °C for 30 min and washed 3 times. A 100 μL aliquot of a solution containing 0.03% H2O2 and 2 mg/ml ophenylenediamine in 0.1 mol/L citrate buffer (pH 5.5) was added. The reaction was terminated by the addition of 50 μL of 2 mol/L H2SO4 as the color changed, and the plate was analyzed using a multi-well spectrophotometer (SpectraMAX 190, Molecular Devices) at 490 nm."}, "[2]": {"molecular_target": "Vascular endothelial growth factor receptor 2 (Homo sapiens, UniProt P35968)", "sequence (P35968 whole entry)": "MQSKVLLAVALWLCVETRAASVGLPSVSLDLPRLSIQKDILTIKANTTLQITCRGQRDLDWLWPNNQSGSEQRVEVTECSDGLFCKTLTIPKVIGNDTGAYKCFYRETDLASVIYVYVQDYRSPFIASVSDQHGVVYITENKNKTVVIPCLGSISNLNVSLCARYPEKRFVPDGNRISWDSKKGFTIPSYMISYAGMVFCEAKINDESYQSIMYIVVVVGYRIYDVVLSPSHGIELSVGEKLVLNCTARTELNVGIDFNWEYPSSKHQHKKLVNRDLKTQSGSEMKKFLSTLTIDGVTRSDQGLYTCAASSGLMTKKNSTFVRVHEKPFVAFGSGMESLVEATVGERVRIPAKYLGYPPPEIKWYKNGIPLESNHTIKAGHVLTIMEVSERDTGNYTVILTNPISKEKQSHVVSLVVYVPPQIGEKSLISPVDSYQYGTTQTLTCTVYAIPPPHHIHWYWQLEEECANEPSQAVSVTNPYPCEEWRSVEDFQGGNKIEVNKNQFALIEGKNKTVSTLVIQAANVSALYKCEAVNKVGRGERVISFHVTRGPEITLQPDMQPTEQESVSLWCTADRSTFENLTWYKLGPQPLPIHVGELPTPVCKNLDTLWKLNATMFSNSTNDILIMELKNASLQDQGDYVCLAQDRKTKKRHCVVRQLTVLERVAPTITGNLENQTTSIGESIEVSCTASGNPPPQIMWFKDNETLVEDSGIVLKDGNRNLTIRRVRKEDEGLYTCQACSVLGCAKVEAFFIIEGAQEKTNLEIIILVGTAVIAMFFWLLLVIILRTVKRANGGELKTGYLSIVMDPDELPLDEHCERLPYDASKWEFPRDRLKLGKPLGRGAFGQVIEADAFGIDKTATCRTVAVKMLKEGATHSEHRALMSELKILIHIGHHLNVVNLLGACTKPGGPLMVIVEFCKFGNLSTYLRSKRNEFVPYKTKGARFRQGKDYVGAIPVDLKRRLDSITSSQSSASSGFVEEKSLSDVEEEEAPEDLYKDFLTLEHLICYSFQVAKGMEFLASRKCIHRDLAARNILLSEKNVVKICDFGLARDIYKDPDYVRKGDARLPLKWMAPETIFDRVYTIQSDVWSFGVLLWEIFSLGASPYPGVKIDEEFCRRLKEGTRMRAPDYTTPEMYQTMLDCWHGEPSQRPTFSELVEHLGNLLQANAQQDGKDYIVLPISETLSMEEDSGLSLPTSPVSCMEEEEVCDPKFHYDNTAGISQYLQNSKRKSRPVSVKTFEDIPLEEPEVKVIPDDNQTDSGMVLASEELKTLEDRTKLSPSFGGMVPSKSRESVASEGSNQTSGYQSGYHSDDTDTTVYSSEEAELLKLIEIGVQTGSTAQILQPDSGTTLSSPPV", "test": "In Vitro c-Met and VEGFR-2 Enzyme Assay", "conditions": "pH 7.4; 37 °C", "experimental": "as §1"}}, "data": [{"molecule": "Cc1c(C(=O)Nc2ccc(Oc3ccnc(-c4nncn4CCCN(C)C)c3)c(F)c2)c(=O)n(-c2ccccc2)n1C", "note": "[N-(3-fluoro-4-((2-(4-(3-dimethylaminopropyl)-4H-1,2,4-triazol-3-yl)pyridin-4-yl)oxy)phenyl)-1,5-dimethyl-3-oxo-2-phenyl-2,3-dihydro-1H-pyrazole-4-carboxamide (12b)]", "values": [{"measurement": "IC50", "setting": "[1]", "result": 150, "unit": "nM"}, {"measurement": "IC50", "setting": "[2]", "result": 370, "unit": "nM"}]}, {"molecule": "Cc1c(C(=O)Nc2ccc(Oc3ccnc(-c4nncn4CCCN4CCN(C)CC4)c3)c(F)c2)c(=O)n(-c2ccccc2)n1C", "note": "[N-(3-fluoro-4-((2-(4-(3-(4-methylpiperazin-1-yl)propyl)-4H-1,2,4-triazol-3-yl)pyridin-4-yl)oxy)phenyl)-1,5-dimethyl-3-oxo-2-phenyl-2,3-dihydro-1H-pyrazole-4-carboxamide (12d)]", "values": [{"measurement": "IC50", "setting": "[2]", "result": 190, "unit": "nM"}]}, {"molecule": "Cc1c(C(=O)Nc2ccc(Oc3ccnc(C(=O)N4CCC(N5CCCCC5)CC4)c3)c(F)c2)c(=O)n(-c2ccccc2)n1C", "note": "[N-(4-((2-([1,4'-bipiperidine]-1'-carbonyl)pyridin-4-yl)oxy)-3-fluorophenyl)-1,5-dimethyl-3-oxo-2-phenyl-2,3-dihydro-1H-pyrazole-4-carboxamide (9o)]", "values": [{"measurement": "IC50", "setting": "[1]", "result": 330, "unit": "nM"}, {"measurement": "IC50", "setting": "[2]", "result": 780, "unit": "nM"}]}, {"molecule": "CCN1CCN(C(=O)c2cc(Oc3ccc(NC(=O)c4c(C)n(C)n(-c5ccccc5)c4=O)cc3F)ccn2)CC1", "note": "[N-(4-((2-(4-ethylpiperazine-1-carbonyl)pyridin-4-yl)oxy-3-fluorophenyl)-1,5-dimethyl-3-oxo-2-phenyl-2,3-dihydro-1H-pyrazole-4-carboxamide (9j)]", "values": [{"measurement": "IC50", "setting": "[1]", "result": 970, "unit": "nM"}, {"measurement": "IC50", "setting": "[2]", "result": "> 1000", "unit": "nM"}]}, {"molecule": "Cc1c(C(=O)Nc2ccc(Oc3ccnc(C(=O)NCCN4CCOCC4)c3)c(F)c2)c(=O)n(-c2ccccc2)n1C", "note": "[4-(4-(1,5-dimethyl-3-oxo-2-phenyl-2,3-dihydro-1H-pyrazole-4-carboxamido)-2-fluorophenoxy)-N-(2-morpholinoethyl)picolinamide (9l)]", "values": [{"measurement": "IC50", "setting": "[1]", "result": 510, "unit": "nM"}, {"measurement": "IC50", "setting": "[2]", "result": 860, "unit": "nM"}]}, {"molecule": "Cc1c(C(=O)Nc2ccc(Oc3ccnc(C(=O)NCCCN4CCOCC4)c3)c(F)c2)c(=O)n(-c2ccccc2)n1C", "note": "[4-(4-(1,5-dimethyl-3-oxo-2-phenyl-2,3-dihydro-1H-pyrazole-4-carboxamido)-2-fluorophenoxy)-N-(3-morpholinopropyl) picolinamide (9h)]", "values": [{"measurement": "IC50", "setting": "[1]", "result": 250, "unit": "nM"}, {"measurement": "IC50", "setting": "[2]", "result": 840, "unit": "nM"}]}, {"molecule": "Cc1c(C(=O)Nc2ccc(Oc3ccnc(-c4nncn4CCCN4CCOCC4)c3)c(F)c2)c(=O)n(-c2ccccc2)n1C", "note": "[N-(3-fluoro-4-((2-(4-(3-morpholinopropyl)-4H-1,2,4-triazol-3-yl)pyridin-4-yl)oxy)phenyl)-1,5-dimethyl-3-oxo-2-phenyl-2,3-dihydro-1H-pyrazole-4-carboxamide (12c)]", "values": [{"measurement": "IC50", "setting": "[1]", "result": 170, "unit": "nM"}, {"measurement": "IC50", "setting": "[2]", "result": 520, "unit": "nM"}]}]}
